Test results as given in patent publication US12110294B2, “CD73 compounds” (Gilead Sciences, Inc., priority 2020, dated 2024).

Biological target: T1, CD73 activity in MDA-MB-231-GFP cells (Homo sapiens, UniProt P21589)
T1 construct: endogenous in cells; host or cells: MDA-MB-231-GFP cells
T1 sequence (P21589 27-549): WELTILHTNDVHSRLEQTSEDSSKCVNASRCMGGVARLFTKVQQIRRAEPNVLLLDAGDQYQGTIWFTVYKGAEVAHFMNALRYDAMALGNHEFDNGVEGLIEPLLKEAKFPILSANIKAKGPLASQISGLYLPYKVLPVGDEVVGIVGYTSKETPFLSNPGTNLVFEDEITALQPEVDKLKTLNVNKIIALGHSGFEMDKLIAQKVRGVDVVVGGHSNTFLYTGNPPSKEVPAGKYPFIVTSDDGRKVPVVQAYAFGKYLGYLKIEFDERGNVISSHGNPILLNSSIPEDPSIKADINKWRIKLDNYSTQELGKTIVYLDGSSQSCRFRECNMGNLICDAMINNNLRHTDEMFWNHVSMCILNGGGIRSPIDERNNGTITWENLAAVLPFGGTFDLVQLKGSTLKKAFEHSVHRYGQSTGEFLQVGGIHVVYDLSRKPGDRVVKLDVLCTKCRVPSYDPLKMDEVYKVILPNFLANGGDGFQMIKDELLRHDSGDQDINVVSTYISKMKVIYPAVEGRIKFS
Experiment: MDA-MB-231 Cell Based CD73 Activity Assay (DMEM)
Conditions: 3000 cells per well, DMEM medium with 10% human plasma, overnight compound treatment, AMP 200 uM

| EC50 [nM] | Compound |
| --- | --- |
| 9.23 | O=c1[nH]cc(-c2cc([C@H]3C[C@@H]3c3ccc(OC(F)(F)F)cn3)c3nccn3n2)c(=O)[nH]1 (racemic) [Example 372, 5-(8-((1S,2S)-2-(5-(trifluoromethoxy)pyridin-2-yl)cyclopropyl)imidazo[1,2-b]pyridazin-6-yl)pyrimidine-2,4(1H,3H)-dione] |
| 13.8 | O=c1[nH]cc(-c2cc([C@H]3C[C@@H]3c3ccc(OC(F)(F)F)cn3)c3ncc(F)n3n2)c(=O)[nH]1 (racemic) [Example 374, 5-(3-fluoro-8-((2S,2S)-2-(5-(trifluoromethoxy)pyridin-2-yl)cyclopropyl)imidazo[1,2-b]pyridazin-6-yl)pyrimidine-2,4(1H,3H)-dione] |
| 19.3 | O=c1[nH]cc(-c2cc([C@H]3C[C@@H]3c3ccc(OC(F)(F)F)nc3)c3nccn3n2)c(=O)[nH]1 (racemic) [Example 376, 5-(8-((2S,2S)-2-(6-(trifluoromethoxy)pyridin-3-yl)cyclopropyl)imidazo[1,2-b]pyridazin-6-yl)pyrimidine-2,4(1H,3H)-dione] |
| 22.6 | O=c1[nH]cc(-c2cc([C@H]3C[C@@H]3c3ncc(C(F)(F)F)cn3)c3nccn3n2)c(=O)[nH]1 (racemic) [Example 377, 5-(8-((1S,2S)-2-(5-(trifluoromethyl)pyrimidin-2-yl)cyclopropyl)imidazo[1,2-b]pyridazin-6-yl)pyrimidine-2,4(1H,3H)-dione] |
| 18.9 | O=c1[nH]cc(-c2cc([C@H]3C[C@@H]3c3ncc(C(F)(F)F)cn3)c3ncc(F)n3n2)c(=O)[nH]1 (racemic) [Example 378, 5-(3-fluoro-8-((1S,2S)-2-(5-(trifluoromethyl)pyrimidin-2-yl)cyclopropyl)imidazo[1,2-b]pyridazin-6-yl)pyrimidine-2,4(1H,3H)-dione] |
| 14.7 | N#Cc1ccc([C@H]2C[C@@H]2c2cc(-c3c[nH]c(=O)[nH]c3=O)nn3ccnc23)c(F)c1 (racemic) [Example 407, 4-((2S,2S)-2-(6-(2,4-dioxo-1,2,3,4-tetrahydropyrimidin-5-yl)imidazo[1,2-b]pyridazin-8-yl)cyclopropyl)-3-fluorobenzonitrile] |
| 7.44 | N#Cc1cccc([C@H]2C[C@@H]2c2cc(-c3c[nH]c(=O)[nH]c3=O)nn3ccnc23)c1F (racemic) [Example 408, 3-((1S,2S)-2-(6-(2,4-dioxo-1,2,3,4-tetrahydropyrimidin-5-yl)imidazo[1,2-b]pyridazin-8-yl)cyclopropyl)-2-fluorobenzonitrile] |
| 42.6 | N#Cc1ccc([C@H]2C[C@@H]2c2cc(-c3c[nH]c(=O)[nH]c3=O)nn3ccnc23)cc1C(F)(F)F (racemic) [Example 411, 4-((1S,2S)-2-(6-(2,4-dioxo-1,2,3,4-tetrahydropyrimidin-5-yl)imidazo[1,2-b]pyridazin-8-yl)cyclopropyl)-2-(trifluoromethyl)benzonitrile] |
| 38.3 | N#Cc1cc([C@H]2C[C@@H]2c2cc(-c3c[nH]c(=O)[nH]c3=O)nn3ccnc23)ccc1C(F)(F)F (racemic) [Example 412, 5-((2S,2S)-2-(6-(2,4-dioxo-1,2,3,4-tetrahydropyrimidin-5-yl)imidazo[1,2-b]pyridazin-8-yl)cyclopropyl)-2-(trifluoromethyl)benzonitrile] |
| 34.6 | N#Cc1ccc([C@H]2C[C@@H]2c2cc(-c3c[nH]c(=O)[nH]c3=O)nn3ccnc23)cc1OC(F)(F)F (racemic) [Example 413, 4-((2S,2S)-2-(6-(2,4-dioxo-1,2,3,4-tetrahydropyrimidin-5-yl)imidazo[1,2-b]pyridazin-8-yl)cyclopropyl)-2-(trifluoromethoxy)benzonitrile] |
| 43.8 | N#Cc1cc([C@H]2C[C@@H]2c2cc(-c3c[nH]c(=O)[nH]c3=O)nn3ccnc23)ccc1OC(F)(F)F (racemic) [Example 414, 5-((2S,2S)-2-(6-(2,4-dioxo-1,2,3,4-tetrahydropyrimidin-5-yl)imidazo[1,2-b]pyridazin-8-yl)cyclopropyl)-2-(trifluoromethoxy)benzonitrile] |
| 2.58 | O=c1[nH]cc(-c2cc(N3CC(Oc4ccc(C(F)(F)F)cn4)C(F)(F)C3)c3ncnn3n2)c(=O)[nH]1 (racemic) [Example 432, 5-(8-(3,3-difluoro-4-((5-(trifluoromethyl)pyridin-2-yl)oxy)pyrrolidin-1-yl)-[1,2,4]triazolo[1,5-b]pyridazin-6-yl)pyrimidine-2,4(1H,3H)-dione] |
| 94.8 | O=c1[nH]cc(-c2cc(N3CCC(CC(F)(F)F)C3)c3nccn3n2)c(=O)[nH]1 (racemic) [Example 452, 5-(8-(3-(2,2,2-trifluoroethyl)pyrrolidin-1-yl)imidazo[1,2-b]pyridazin-6-yl)pyrimidine-2,4(1H,3H)-dione] |
| 112 | O=c1[nH]cc(-c2cc(N3CCC(CC(F)F)C3)c3nccn3n2)c(=O)[nH]1 (racemic) [Example 453, 5-(8-(3-(2,2-difluoroethyl)pyrrolidin-1-yl)imidazo[1,2-b]pyridazin-6-yl)pyrimidine-2,4(1H,3H)-dione] |
| 11.6 | O=c1[nH]cc(-c2cc([C@H]3C[C@@H]3c3nc4ccccc4[nH]3)c3nccn3n2)c(=O)[nH]1 (racemic) [Example 461, 5-(8-((1S,2S)-2-(1H-benzo[d]imidazol-2-yl)cyclopropyl)imidazo[1,2-b]pyridazin-6-yl)pyrimidine-2,4(1H,3H)-dione] |
| 16.2 | O=c1[nH]cc(-c2cc([C@H]3C[C@@H]3c3ccc(F)c(F)c3F)c3nccn3n2)c(=O)[nH]1 (racemic) [Example 464, 5-(8-((2S,2S)-2-(2,3,4-trifluorophenyl)cyclopropyl)imidazo[1,2-b]pyridazin-6-yl)pyrimidine-2,4(1H,3H)-dione] |
| 20 | N#Cc1ccc(F)c([C@H]2C[C@@H]2c2cc(-c3c[nH]c(=O)[nH]c3=O)nn3ccnc23)c1 (racemic) [Example 466, 3-((2S,2S)-2-(6-(2,4-dioxo-1,2,3,4-tetrahydropyrimidin-5-yl)imidazo[1,2-b]pyridazin-8-yl)cyclopropyl)-4-fluorobenzonitrile] |
| 13.3 | O=c1[nH]cc(-c2cc([C@H]3C[C@@H]3c3c(F)ccc(F)c3F)c3nccn3n2)c(=O)[nH]1 (racemic) [Example 468, 5-(8-((2S,2S)-2-(2,3,6-trifluorophenyl)cyclopropyl)imidazo[1,2-b]pyridazin-6-yl)pyrimidine-2,4(1H,3H)-dione] |
| 0.24 | O=c1[nH]cc(-c2cc([C@H]3C[C@@H]3c3cc4c(cn3)cnn4CC(F)(F)F)c3ncc(Cl)n3n2)c(=O)[nH]1 (racemic) [Example 471, 5-(3-chloro-8-((2S,2S)-2-(1-(2,2,2-trifluoroethyl)-1H-pyrazolo[4,3-c]pyridin-6-yl)cyclopropyl)imidazo[1,2-b]pyridazin-6-yl)pyrimidine-2,4(1H,3H)-dione] |
| 0.33 | CC1(C)C(=O)N(CC(F)(F)F)c2cc([C@H]3C[C@@H]3c3cc(-c4c[nH]c(=O)[nH]c4=O)nn4ccnc34)ncc21 (racemic) [Example 718, 5-[8-[(1S,2S)-2-[3,3-dimethyl-2-oxo-1-(2,2,2-trifluoroethyl)pyrrolo[3,2-c]pyridin-6-yl]cyclopropyl]imidazo[1,2-b]pyridazin-6-yl]-1H-pyrimidine-2,4-dione] |
